From patent US9017692B2, “Antimicrobial agent, bacterial strain, biosynthesis, and methods of use” (priority 2011, dated 2015)
Converted amounts (≈) assume the structure as drawn. Read-outs that look alike come from different tables or passages of the source.

Key:
[1] = system: KPN.2317; test: MIC, CLSI broth microdilution, Gram-negative clinical isolates; assay type: cell-based, Klebsiella pneumoniae; details: for MIC: Klebsiella pneumoniae, read-out: Minimum inhibitory concentration (MIC)
Description: (§1) Plates were incubated at 35° C. for 24 h.
(§2) The activity of paenibacterin was also tested against clinical isolates of the following Gram-negative bacterial strains: four strains of the species Pseudomonas aeruginosa (PAE), three strains of the species Acinetobacter baumannii (ABA), two strains of the species Escherichia coli (ECO), and four strains of the species Klebsiella pneumoniae (KPN). Particularly, the strains of Gram-negative bacteria included polymyxin B-resistant (PMB-R) and polymyxin B-sensitive (PMB-S) strains of each above listed species. The MICs were determined using the above described CLSI broth microdilution method, in which the method was performed with both non-binding surface coated (NBS) and polystyrene (PS) 96-well plates (Tables 11 and 12, respectively). The MICs were generally lower in the NBS 96-well plates as compared to the PS 96-well plates.

[2] = system: PMB-R, KPN.2463; test: as above; assay type: cell-based, Klebsiella pneumoniae
Description: as §1, §2

[3] = system: KPN.674; test: as above; assay type: cell-based, Klebsiella pneumoniae; details: for MIC: Klebsiella pneumoniae, read-out: Minimum inhibitory concentration (MIC)
Description: as §1, §2

[4] = system: PMB-S, KPN.2461; test: as above; assay type: cell-based, Klebsiella pneumoniae
Description: as §1, §2

[5] = system: PAE.2325; test: as above; assay type: cell-based, Pseudomonas aeruginosa; details: for MIC: Pseudomonas aeruginosa, read-out: Minimum inhibitory concentration (MIC)
Description: as §1, §2

[6] = system: PAE.999; test: as above; assay type: cell-based, Pseudomonas aeruginosa; details: for MIC: Pseudomonas aeruginosa, read-out: Minimum inhibitory concentration (MIC)
Description: as §1, §2

[7] = system: PAE.44; test: as above; assay type: cell-based, Pseudomonas aeruginosa
Description: as §1, §2

[8] = system: PAE.2281; test: as above; assay type: cell-based, Pseudomonas aeruginosa; details: for MIC: Pseudomonas aeruginosa, read-out: Minimum inhibitory concentration (MIC)
Description: as §1, §2

[9] = system: ECO.2276; test: as above; assay type: cell-based, Escherichia coli; details: for MIC: Escherichia coli, read-out: Minimum inhibitory concentration (MIC)
Description: as §1, §2

[10] = system: ATCC 25922 ECO.35; test: as above; assay type: cell-based, Escherichia coli; details: for MIC: Escherichia coli, read-out: Minimum inhibitory concentration (MIC)
Description: as §1, §2

[11] = system: ABA.2315; test: as above; assay type: cell-based, Acinetobacter baumannii
Description: as §1, §2

[12] = system: ABA.1570; test: as above; assay type: cell-based, Acinetobacter baumannii; details: for MIC: Acinetobacter baumannii, read-out: Minimum inhibitory concentration (MIC)
Description: as §1, §2

[13] = system: ABA.2232; test: as above; assay type: cell-based, Acinetobacter baumannii; details: for MIC: Acinetobacter baumannii, read-out: Minimum inhibitory concentration (MIC)
Description: as §1, §2

[14] = system: WT ATCC 29212 EFS.43; test: microbe, parasite or virus in culture; details: Enterococcus faecalis, ATCC29212, read-out: Minimum inhibitory concentration (MIC)
Description: (§3) The activity of paenibacterin against several strains of Gram-positive and Gram-negative foodborne pathogens is summarized in Table 10. The data is reported as minimum inhibitory concentrations (MIC) as an average of three replicates for paenibacterin against the various listed bacterial strains. […] MICs were determined according to the CLSI broth microdilution method (see, Clinical and Laboratory Standards Institute (CLSI). 2009. Methods for dilution antimicrobial susceptibility tests for bacteria that grow aerobically; approved standard. […]. CLSI, Wayne, Pa.). Briefly, HPLC-purified paenibacterin was dissolved in methanol and diluted to appropriate concentration with cation-adjusted Mueller-Hinton II broth (Difco). Aliquots (25 μl) of serially-diluted paenibacterin was dispensed into wells of a 96-well plate; an equal amount of 1/10 diluted overnight bacterial culture was added to wells. Plates were incubated at 35° C. for 24 h. Cell growth after incubation was examined and determined using a microtiter plate reader at 600 nm. Concentration of paenibacterin is determined based on a molecular weight of 1604 Da.
(§4) The activity of paenibacterin was further tested against clinical isolates of the following Gram-positive bacteria: methicillin-sensitive Staphylococcus aureus (MSSA), methicillin-resistant S. aureus (MRSA), vancomycin-sensitive Enterococcus faecalis, vancomycin-resistant E. faecalis (VRE), Streptococcus pneumoniae, and laboratory derived daptomycin-resistant (DR) MSSA, MRSA, and VRE strains. The MICs were determined using the above described CLSI broth microdilution method, in which the method was performed with non-binding surface coated (NBS) 96-well plates.

[15] = system: MSSA ATCC 29213 SAU.42; test: microbe, parasite or virus in culture; details: Staphylococcus aureus, ATCC29213|MSSA, read-out: Minimum inhibitory concentration (MIC)
Description: as §3, §4

[16] = system: DR-MSSA from SAU.42 SAU.278; test: microbe, parasite or virus in culture; details: Staphylococcus aureus, MSSA, read-out: Minimum inhibitory concentration (MIC)
Description: as §3, §4

[17] = system: WT ATCC 49619 SPN.31; test: microbe, parasite or virus in culture; details: Streptococcus pneumoniae, ATCC49619, read-out: Minimum inhibitory concentration (MIC)
Description: as §3, §4

[18] = system: MRSA ATCC 43300 SAU.399; test: microbe, parasite or virus in culture; details: Staphylococcus aureus, ATCC43300|MRSA, read-out: Minimum inhibitory concentration (MIC)
Description: as §3, §4

[19] = system: DR-VRE from EFS.807 EFS.2731; test: microbe, parasite or virus in culture; details: Enterococcus faecalis, VRE, read-out: Minimum inhibitory concentration (MIC)
Description: as §3, §4

[20] = system: DS-VRE ATCC 700802 EFS.807; test: microbe, parasite or virus in culture; details: Enterococcus faecalis, ATCC700802|VRE, read-out: Minimum inhibitory concentration (MIC)
Description: as §3, §4

[21] = system: DR-MRSA from MW2 SP SAU.1616; test: microbe, parasite or virus in culture; details: Staphylococcus aureus, MRSA, read-out: Minimum inhibitory concentration (MIC)
Description: as §3, §4

[22] = polystyrene (PS) 96-well plates

In the case of NC[C@H]1O[C@H](O[C@H]2[C@H](O)[C@@H](O[C@H]3O[C@H](CO)[C@@H](O)[C@H](N)[C@H]3O)[C@H](N)C[C@@H]2N)[C@H](N)C[C@@H]1O [tobramycin], the MIC ([1]; NBS 96-well plates) was > 32 µg/mL, the MIC ([1]; PS 96-well plates) was > 32 µg/mL and the “Minimum inhibitory concentration (MIC)” value ([2]; KPN.2463, PS 96-well plates) was 32 µg/mL (≈ 68.4 µM). For the same molecule, the MIC ([2]; Klebsiella pneumoniae, KPN.2463 (PMB-R), NBS 96-well plates, read-out: Minimum inhibitory concentration (MIC)) was 32 µg/mL (≈ 68.4 µM), the MIC ([3]; NBS 96-well plates) was 8 µg/mL (≈ 17.1 µM) and the MIC ([3]; PS 96-well plates) was 8 µg/mL (≈ 17.1 µM). For the same molecule, the “Minimum inhibitory concentration (MIC)” value ([4]; KPN.2461, PS 96-well plates) was 32 µg/mL (≈ 68.4 µM), the MIC ([4]; Klebsiella pneumoniae, KPN.2461 (PMB-S), NBS 96-well plates, read-out: Minimum inhibitory concentration (MIC)) was 32 µg/mL (≈ 68.4 µM) and the MIC ([5]; NBS 96-well plates) was > 32 µg/mL. The MIC ([5]; PS 96-well plates) was > 32 µg/mL, the MIC ([6]; NBS 96-well plates) was 32 µg/mL (≈ 68.4 µM) and the MIC ([6]; PS 96-well plates) was > 32 µg/mL. The MIC ([7]; Pseudomonas aeruginosa, non-binding surface coated (NBS) 96-well plates, read-out: Minimum inhibitory concentration (MIC)) was 0.5 µg/mL (≈ 1.07 µM), the “Minimum inhibitory concentration (MIC)” value [7, 22] was 0.5 µg/mL (≈ 1.07 µM) and the MIC ([8]; NBS 96-well plates) was 1 to 2 µg/mL (≈ 2.14 to 4.28 µM). For the same molecule, the MIC ([8]; PS 96-well plates) was 1 µg/mL (≈ 2.14 µM), the MIC ([9]; NBS 96-well plates) was 1 to 2 µg/mL (≈ 2.14 to 4.28 µM) and the MIC ([9]; PS 96-well plates) was 2 µg/mL (≈ 4.28 µM). For the same molecule, the MIC ([10]; ATCC25922, ECO.35 (ATCC 25922), NBS 96-well plates) was 1 µg/mL (≈ 2.14 µM), the MIC ([10]; ATCC25922, ECO.35, PS 96-well plates) was 1 µg/mL (≈ 2.14 µM) and the MIC ([11]; Acinetobacter baumannii, NBS 96-well plates, read-out: Minimum inhibitory concentration (MIC)) was > 32 µg/mL. The “Minimum inhibitory concentration (MIC)” value ([11]; PS 96-well plates) was >32 µg/mL, the MIC ([12]; NBS 96-well plates) was 32 µg/mL (≈ 68.4 µM) and the MIC ([12]; PS 96-well plates) was 16 µg/mL (≈ 34.2 µM). The MIC ([13]; NBS 96-well plates) was 0.5 µg/mL (≈ 1.07 µM), the MIC ([13]; PS 96-well plates) was 1 µg/mL (≈ 2.14 µM) and the MIC [14] was 8 µg/mL (≈ 17.1 µM). For the same molecule, the MIC [15] was 0.5 µg/mL (≈ 1.07 µM), the MIC [16] was 0.5 µg/mL (≈ 1.07 µM) and the MIC [17] was 0.25 µg/mL (≈ 0.535 µM). For the same molecule, the MIC [18] was > 32 µg/mL, the MIC [19] was > 32 µg/mL and the MIC [20] was > 32 µg/mL. The MIC [21] was 0.5 µg/mL (≈ 1.07 µM).
In the case of CN[C@H](CC(C)C)C(=O)N[C@H]1C(=O)N[C@@H](CC(N)=O)C(=O)N[C@H]2C(=O)N[C@H]3C(=O)N[C@H](C(=O)N[C@H](C(=O)O)c4cc(O)cc(O)c4-c4cc3ccc4O)[C@H](O)c3ccc(c(Cl)c3)Oc3cc2cc(c3O[C@@H]2O[C@H](CO)[C@@H](O)[C@H](O)[C@H]2O[C@H]2C[C@](C)(N)[C@H](O)[C@H](C)O2)Oc2ccc(cc2Cl)[C@H]1O [vancomycin], the MIC [14] was 2 to 4 µg/mL (≈ 1.38 to 2.76 µM), the MIC [15] was 1 µg/mL (≈ 0.69 µM) and the MIC [16] was 2 µg/mL (≈ 1.38 µM). The MIC [17] was 16 µg/mL (≈ 11 µM), the MIC [18] was 2 µg/mL (≈ 1.38 µM) and the MIC [19] was 32 µg/mL (≈ 22.1 µM). It also gave an MIC [20] of 16 to 32 µg/mL (≈ 11 to 22.1 µM) and an MIC [21] of 2 µg/mL (≈ 1.38 µM).
For polymyxin B sulfate, the “Minimum inhibitory concentration (MIC)” value ([1]; NBS 96-well plates) was >64 µg/mL, the “Minimum inhibitory concentration (MIC)” value ([1]; PS 96-well plates) was >64 µg/mL and the “Minimum inhibitory concentration (MIC)” value ([2]; KPN.2463 (PMB-R), NBS 96-well plates) was 2 to 8 µg/mL. For the same molecule, the “Minimum inhibitory concentration (MIC)” value ([2]; KPN.2463, PS 96-well plates) was 32 µg/mL, the “Minimum inhibitory concentration (MIC)” value ([3]; NBS 96-well plates) was 0.125 µg/mL and the “Minimum inhibitory concentration (MIC)” value ([3]; PS 96-well plates) was 2 µg/mL. The “Minimum inhibitory concentration (MIC)” value ([4]; KPN.2461 (PMB-S), NBS 96-well plates) was 0.06 to 0.13 µg/mL, the “Minimum inhibitory concentration (MIC)” value ([4]; KPN.2461, PS 96-well plates) was 2 µg/mL and the “Minimum inhibitory concentration (MIC)” value ([5]; NBS 96-well plates) was 0.25 µg/mL. The “Minimum inhibitory concentration (MIC)” value ([5]; PS 96-well plates) was 2 µg/mL, the “Minimum inhibitory concentration (MIC)” value ([6]; NBS 96-well plates) was 0.25 µg/mL and the “Minimum inhibitory concentration (MIC)” value ([6]; PS 96-well plates) was 2 µg/mL. For the same molecule, the “Minimum inhibitory concentration (MIC)” value ([7]; non-binding surface coated (NBS) 96-well plates) was 0.125 µg/mL, the “Minimum inhibitory concentration (MIC)” value [7, 22] was 2 µg/mL and the “Minimum inhibitory concentration (MIC)” value ([8]; NBS 96-well plates) was 16 µg/mL. The “Minimum inhibitory concentration (MIC)” value ([8]; PS 96-well plates) was 16 µg/mL, the “Minimum inhibitory concentration (MIC)” value ([9]; NBS 96-well plates) was 8 µg/mL and the “Minimum inhibitory concentration (MIC)” value ([9]; PS 96-well plates) was 8 µg/mL. The “Minimum inhibitory concentration (MIC)” value ([10]; ECO.35 (ATCC 25922), NBS 96-well plates) was 0.06 µg/mL, the “Minimum inhibitory concentration (MIC)” value ([10]; ECO.35, PS 96-well plates) was 2 µg/mL and the “Minimum inhibitory concentration (MIC)” value ([11]; NBS 96-well plates) was 8 µg/mL. For the same molecule, the “Minimum inhibitory concentration (MIC)” value ([11]; PS 96-well plates) was 64 µg/mL, the “Minimum inhibitory concentration (MIC)” value ([12]; NBS 96-well plates) was 0.0625 µg/mL and the “Minimum inhibitory concentration (MIC)” value ([12]; NBS 96-well plates, listed as polymyxin B) was 0.06 µg/mL. The “Minimum inhibitory concentration (MIC)” value ([12]; PS 96-well plates) was 2 µg/mL, the “Minimum inhibitory concentration (MIC)” value ([13]; NBS 96-well plates) was 0.06 µg/mL and the “Minimum inhibitory concentration (MIC)” value ([13]; PS 96-well plates) was 2 µg/mL.
